The values below come from ChEMBL document CHEMBL1128987, “Benzenesulfonamide-peptide conjugates as probes for secondary binding sites near the active site of carbonic anhydrase” (Bioorg Med Chem Lett, 1996).

The structures appear in SMILES notation.

The assay addresses Carbonic anhydrase 2 (Homo sapiens, UniProt P00918). The assay can be described thus: Dissociation constant against human carbonic anhydrase II at 37 degree Centigrade.
In the case of `NS(=O)(=O)c1ccc(C(=O)NCC(=O)NCC(=O)NC(Cc2ccc3ccccc3c2)C(=O)O)cc1` (stereo not given), the Kd was 0.16 µM.
To `C[C@@H](O)[C@H](NC(=O)CNC(=O)CNC(=O)c1ccc(S(N)(=O)=O)cc1)C(=O)O` belongs 0.33 µM; to `CCC(C)C(NC(=O)c1ccc(S(N)(=O)=O)cc1)C(=O)O` (stereo not given), 0.009 µM; to `NC(=O)C[C@H](NC(=O)CNC(=O)CNC(=O)CNC(=O)c1ccc(S(N)(=O)=O)cc1)C(=O)O`, 0.29 µM.
In turn, `Nc1ccc(CC(NC(=O)c2ccc(S(N)(=O)=O)cc2)C(=O)O)cc1` (stereo not given) gave a dissociation constant Kd of 0.064 µM.
To `NC(=O)CC[C@H](NC(=O)CNC(=O)CNC(=O)CNC(=O)c1ccc(S(N)(=O)=O)cc1)C(=O)O` belongs 0.28 µM; to `NS(=O)(=O)c1ccc(C(=O)NC(Cc2ccccc2)C(=O)O)cc1` (stereo not given), 0.013 µM.
To `CSCCC(NC(=O)c1ccc(S(N)(=O)=O)cc1)C(=O)O` (stereo not given) belongs 0.01 µM; to `Nc1ccc(CC(NC(=O)CNC(=O)c2ccc(S(N)(=O)=O)cc2)C(=O)O)cc1` (stereo not given), 0.33 µM; to `NS(=O)(=O)c1ccc(C(=O)NCC(=O)NCC(=O)NCC(=O)N[C@@H](Cc2ccc3ccccc3c2)C(=O)O)cc1`, 0.16 µM.
The compound `Nc1ccc(C[C@H](NC(=O)CNC(=O)CNC(=O)CNC(=O)c2ccc(S(N)(=O)=O)cc2)C(=O)O)cc1` came in with a dissociation constant Kd of 0.19 µM.
To `NS(=O)(=O)c1ccc(C(=O)NCC(=O)NC(Cc2ccc(F)cc2)C(=O)O)cc1` (stereo not given) belongs 0.13 µM; to `NC(=O)C[C@H](NC(=O)CNC(=O)CNC(=O)c1ccc(S(N)(=O)=O)cc1)C(=O)O`, 0.27 µM.
To `CC(C)(C)[C@H](NC(=O)CNC(=O)CNC(=O)c1ccc(S(N)(=O)=O)cc1)C(=O)O` belongs 0.24 µM.
Next, `CC(O)C(NC(=O)c1ccc(S(N)(=O)=O)cc1)C(=O)O` (stereo not given): 0.053 µM.
Compound `NS(=O)(=O)c1ccc(C(=O)NCC(=O)NCC(=O)N[C@@H](Cc2ccc(Cl)cc2)C(=O)O)cc1` registered a Kd of 0.094 µM.
Next, `NS(=O)(=O)c1ccc(C(=O)NCC(=O)NCC(=O)N2CCC[C@H]2C(=O)O)cc1`: 0.34 µM; `C[C@H](NC(=O)CNC(=O)CNC(=O)c1ccc(S(N)(=O)=O)cc1)C(=O)O`: 0.25 µM; `COc1ccc(C[C@H](NC(=O)CNC(=O)CNC(=O)CNC(=O)c2ccc(S(N)(=O)=O)cc2)C(=O)O)cc1`: 0.17 µM.
In turn, `NS(=O)(=O)c1ccc(C(=O)NCC(=O)NCC(=O)NCC(=O)N[C@@H](Cc2ccc(F)cc2)C(=O)O)cc1` displayed a Kd of 0.14 µM.
`COc1ccc(CC(NC(=O)CNC(=O)c2ccc(S(N)(=O)=O)cc2)C(=O)O)cc1` (stereo not given) came in with an equilibrium dissociation constant (Kd) of 0.17 µM.
To `NS(=O)(=O)c1ccc(C(=O)N2CCCC2C(=O)O)cc1` (stereo not given) belongs 0.23 µM; to `N=C(N)NCCCC(NC(=O)CNC(=O)c1ccc(S(N)(=O)=O)cc1)C(=O)O` (stereo not given), 0.19 µM; to `CC[C@H](C)[C@H](NC(=O)CNC(=O)CNC(=O)CNC(=O)c1ccc(S(N)(=O)=O)cc1)C(=O)O`, 0.23 µM.
Next, `CC(C)C[C@H](NC(=O)CNC(=O)CNC(=O)c1ccc(S(N)(=O)=O)cc1)C(=O)O`: 0.21 µM; `NC(=O)CC(NC(=O)CNC(=O)c1ccc(S(N)(=O)=O)cc1)C(=O)O` (stereo not given): 0.29 µM; `CC(O)C(NC(=O)CNC(=O)c1ccc(S(N)(=O)=O)cc1)C(=O)O` (stereo not given): 0.32 µM.
To `Nc1ccc(C[C@H](NC(=O)CNC(=O)CNC(=O)c2ccc(S(N)(=O)=O)cc2)C(=O)O)cc1` belongs 0.21 µM; to `NS(=O)(=O)c1ccc(C(=O)NCC(=O)NCC(=O)N[C@@H](Cc2ccc(F)cc2)C(=O)O)cc1`, 0.12 µM.
`CC(C)C(NC(=O)c1ccc(S(N)(=O)=O)cc1)C(=O)O` (stereo not given) yielded a Kd of 0.015 µM.
`CC(NC(=O)c1ccc(S(N)(=O)=O)cc1)C(=O)O` (stereo not given) gave a Kd of 0.12 µM.
Next, `NS(=O)(=O)c1ccc(C(=O)NCC(=O)NCC(=O)NCC(=O)N[C@@H](Cc2ccccc2)C(=O)O)cc1`: 0.2 µM; `NS(=O)(=O)c1ccc(C(=O)NCC(=O)NC(Cc2ccc3ccccc3c2)C(=O)O)cc1` (stereo not given): 0.13 µM.
Next, `NS(=O)(=O)c1ccc(C(=O)NCC(=O)NC(CO)C(=O)O)cc1` (stereo not given): 0.28 µM.
Next, `CSCC[C@@H](NC(=O)CNC(=O)CNC(=O)CNC(=O)c1ccc(S(N)(=O)=O)cc1)C(=O)O`: 0.22 µM; `NS(=O)(=O)c1ccc(C(=O)NC(Cc2ccc3ccccc3c2)C(=O)O)cc1` (stereo not given): 0.017 µM.
`CC(C)(C)C(NC(=O)c1ccc(S(N)(=O)=O)cc1)C(=O)O` (stereo not given): the Kd was determined as 0.009 µM.
Next, `CC[C@H](C)[C@H](NC(=O)CNC(=O)CNC(=O)c1ccc(S(N)(=O)=O)cc1)C(=O)O`: 0.23 µM.
Next, `NS(=O)(=O)c1ccc(C(=O)NC(CC(=O)O)C(=O)O)cc1` (stereo not given): 1.1 µM; `NS(=O)(=O)c1ccc(C(=O)NC(CCC(=O)O)C(=O)O)cc1` (stereo not given): 0.53 µM; `CC(C)(C)C(NC(=O)CNC(=O)c1ccc(S(N)(=O)=O)cc1)C(=O)O` (stereo not given): 0.15 µM.
Next, `NC(=O)CC[C@H](NC(=O)CNC(=O)CNC(=O)c1ccc(S(N)(=O)=O)cc1)C(=O)O`: 0.27 µM; `NS(=O)(=O)c1ccc(C(=O)NCC(=O)NCC(=O)N[C@@H](CO)C(=O)O)cc1`: 0.29 µM.
`NS(=O)(=O)c1ccc(C(=O)NCC(=O)NC(Cc2ccc([N+](=O)[O-])cc2)C(=O)O)cc1` (stereo not given) registered a Kd of 0.15 µM.
Next, `CC(C)[C@H](NC(=O)CNC(=O)CNC(=O)c1ccc(S(N)(=O)=O)cc1)C(=O)O`: 0.26 µM.
To `NS(=O)(=O)c1ccc(C(=O)NCC(=O)NCC(=O)NCC(=O)O)cc1` belongs 0.23 µM.
Next, `NS(=O)(=O)c1ccc(C(=O)NCC(=O)NCC(=O)NCC(=O)N2CCC[C@H]2C(=O)O)cc1`: 0.33 µM; `CCCCC(NC(=O)CNC(=O)c1ccc(S(N)(=O)=O)cc1)C(=O)O` (stereo not given): 0.14 µM.
Take `CC(C)CC(NC(=O)c1ccc(S(N)(=O)=O)cc1)C(=O)O` (stereo not given): the affinity, expressed as Kd, was 0.009 µM.
Next, `NS(=O)(=O)c1ccc(C(=O)NCC(=O)NCC(=O)N[C@@H](Cc2ccc([N+](=O)[O-])cc2)C(=O)O)cc1`: 0.13 µM.
Next, `NS(=O)(=O)c1ccc(C(=O)NCC(=O)NCC(=O)N[C@@H](CCC(=O)O)C(=O)O)cc1`: 0.372 µM; `C[C@H](NC(=O)CNC(=O)c1ccc(S(N)(=O)=O)cc1)C(=O)O`: 0.17 µM; `COc1ccc(CC(NC(=O)c2ccc(S(N)(=O)=O)cc2)C(=O)O)cc1` (stereo not given): 0.027 µM.
Next, `NS(=O)(=O)c1ccc(C(=O)NCC(=O)N2CCCC2C(=O)O)cc1` (stereo not given): 0.25 µM.
The compound `NS(=O)(=O)c1ccc(C(=O)NCC(=O)NC(Cc2ccccc2)C(=O)O)cc1` (stereo not given) had a Kd of 0.14 µM.
Next, `NS(=O)(=O)c1ccc(C(=O)NCC(=O)NCC(=O)N[C@@H](Cc2ccccc2)C(=O)O)cc1`: 0.14 µM; `NS(=O)(=O)c1ccc(C(=O)NCC(=O)NC(Cc2ccc(Cl)cc2)C(=O)O)cc1` (stereo not given): 0.1 µM.
In the case of `NS(=O)(=O)c1ccc(C(=O)NCC(=O)NCC(=O)NCC(=O)N[C@@H](CCC(=O)O)C(=O)O)cc1`, binding was characterised by a dissociation constant (Kd) of 0.371 µM.
As to `NC(=O)CC(NC(=O)c1ccc(S(N)(=O)=O)cc1)C(=O)O` (stereo not given), the Kd worked out at 0.38 µM.
Compound `CSCC[C@@H](NC(=O)CNC(=O)CNC(=O)c1ccc(S(N)(=O)=O)cc1)C(=O)O` returned a dissociation constant Kd of 0.16 µM.
Next, `NS(=O)(=O)c1ccc(C(=O)NC(Cc2ccc(F)cc2)C(=O)O)cc1` (stereo not given): 0.017 µM.
Regarding `NS(=O)(=O)c1ccc(C(=O)NCC(=O)NCC(=O)NCC(=O)N[C@@H](Cc2ccc([N+](=O)[O-])cc2)C(=O)O)cc1`, the affinity, expressed as Kd, was 0.16 µM.
Take `NS(=O)(=O)c1ccc(C(=O)NCC(=O)NC(CCC(=O)O)C(=O)O)cc1` (stereo not given): binding was put at a Kd of 0.5 µM.
Next, `NS(=O)(=O)c1ccc(C(=O)NC(Cc2ccc([N+](=O)[O-])cc2)C(=O)O)cc1` (stereo not given): 0.022 µM; `CC(C)[C@H](NC(=O)CNC(=O)CNC(=O)CNC(=O)c1ccc(S(N)(=O)=O)cc1)C(=O)O`: 0.29 µM; `CC(C)CC(NC(=O)CNC(=O)c1ccc(S(N)(=O)=O)cc1)C(=O)O` (stereo not given): 0.13 µM.
To `NS(=O)(=O)c1ccc(C(=O)NCC(=O)NCC(=O)NCC(=O)N[C@@H](CO)C(=O)O)cc1` belongs 0.36 µM.
To `NS(=O)(=O)c1ccc(C(=O)NCC(=O)NCC(=O)NCC(=O)N[C@@H](CC(=O)O)C(=O)O)cc1` belongs 0.3 µM; to `NS(=O)(=O)c1ccc(C(=O)NC(CO)C(=O)O)cc1` (stereo not given), 0.24 µM.
Take `CC(C)C(NC(=O)CNC(=O)c1ccc(S(N)(=O)=O)cc1)C(=O)O` (stereo not given): the equilibrium dissociation constant (Kd) was found to be 0.14 µM.
In turn, `N=C(N)NCCC[C@H](NC(=O)CNC(=O)CNC(=O)c1ccc(S(N)(=O)=O)cc1)C(=O)O` yielded a Kd of 0.3 µM.
For the compound `COc1ccc(C[C@H](NC(=O)CNC(=O)CNC(=O)c2ccc(S(N)(=O)=O)cc2)C(=O)O)cc1`, the dissociation constant (Kd) came out at 0.17 µM.
To `CC(C)C[C@H](NC(=O)CNC(=O)CNC(=O)CNC(=O)c1ccc(S(N)(=O)=O)cc1)C(=O)O` belongs 0.21 µM.
To `CC(C)(C)[C@H](NC(=O)CNC(=O)CNC(=O)CNC(=O)c1ccc(S(N)(=O)=O)cc1)C(=O)O` belongs 0.21 µM.
`C[C@H](NC(=O)CNC(=O)CNC(=O)CNC(=O)c1ccc(S(N)(=O)=O)cc1)C(=O)O`: the Kd stood at 0.3 µM.
Next, `N=C(N)NCCCC(NC(=O)c1ccc(S(N)(=O)=O)cc1)C(=O)O` (stereo not given): 0.22 µM.
Next, `CCCC[C@H](NC(=O)CNC(=O)CNC(=O)c1ccc(S(N)(=O)=O)cc1)C(=O)O`: 0.14 µM.
Next, `NC(=O)CCC(NC(=O)c1ccc(S(N)(=O)=O)cc1)C(=O)O` (stereo not given): 0.14 µM; `C[C@@H](O)[C@H](NC(=O)CNC(=O)CNC(=O)CNC(=O)c1ccc(S(N)(=O)=O)cc1)C(=O)O`: 0.33 µM; `NC(=O)CCC(NC(=O)CNC(=O)c1ccc(S(N)(=O)=O)cc1)C(=O)O` (stereo not given): 0.24 µM.
Consider `CCC(C)C(NC(=O)CNC(=O)c1ccc(S(N)(=O)=O)cc1)C(=O)O` (stereo not given), for which the Kd came to 0.16 µM.
Consider `N=C(N)NCCC[C@H](NC(=O)CNC(=O)CNC(=O)CNC(=O)c1ccc(S(N)(=O)=O)cc1)C(=O)O`, for which the dissociation constant (Kd) came out at 0.29 µM.
Take `NS(=O)(=O)c1ccc(C(=O)NCC(=O)NCC(=O)O)cc1`: the dissociation constant Kd was determined as 0.29 µM.
To `NS(=O)(=O)c1ccc(C(=O)NCC(=O)NCC(=O)N[C@@H](CC(=O)O)C(=O)O)cc1` belongs 0.4 µM; to `CSCCC(NC(=O)CNC(=O)c1ccc(S(N)(=O)=O)cc1)C(=O)O` (stereo not given), 0.16 µM.

A word on the Kd: it is the equilibrium constant for the complex coming apart.
